Read-outs that look alike come from different tables or passages of the source.
Experiments:
[1] = physchem
[2] = system: transfer of LDL-derived cholesterol from lysosomes to ER in CHO-7 cells; type: cell-based, hamster
[3] = system: SREBP-2 cleavage in CHO-7 cells; type: cell-based, hamster
[4] = biological target: NPC1 (Cricetulus griseus, UniProt Q9JLG3); type: binding, hamster
[5] = system: cholesterol egress from lysosomes; conditions: cited from earlier work
[6] = system: TR-4139 cells (CHO-7 cells stably expressing excess human NPC1); type: cell-based, hamster
[7] = system: NTD of recombinant NPC1; conditions: cited from earlier work
[8] = biological target: wild-type human NPC1 (Homo sapiens, UniProt O15118); type: binding
[9] = system: Ebola virus; conditions: cited from earlier work
[10] = system: cholesterol esterification stimulated by 25-hydroxycholesterol; type: cell-based
[11] = system: ER membranes; type: biochemical
[12] = system: Ebola virus; type: cell-based
[13] = system: lysosomal degradation of 125I-LDL in CHO-7 cells; type: cell-based, hamster
[14] = biological target: NPC1L1 (Homo sapiens, UniProt Q9UHC9); type: binding
[15] = biological target: purified NPC1 (Homo sapiens, UniProt O15118); type: binding
[16] = read-out: Inhibitory constant (Ki): concentration inhibiting incorporation of [14C]oleate into cholesteryl [14C]oleate by 50%
[17] = read-out: Ki for inhibition of esterification of LDL-derived cholesterol

Sequence of NPC1 (Q9JLG3 23-1277 limits assumed): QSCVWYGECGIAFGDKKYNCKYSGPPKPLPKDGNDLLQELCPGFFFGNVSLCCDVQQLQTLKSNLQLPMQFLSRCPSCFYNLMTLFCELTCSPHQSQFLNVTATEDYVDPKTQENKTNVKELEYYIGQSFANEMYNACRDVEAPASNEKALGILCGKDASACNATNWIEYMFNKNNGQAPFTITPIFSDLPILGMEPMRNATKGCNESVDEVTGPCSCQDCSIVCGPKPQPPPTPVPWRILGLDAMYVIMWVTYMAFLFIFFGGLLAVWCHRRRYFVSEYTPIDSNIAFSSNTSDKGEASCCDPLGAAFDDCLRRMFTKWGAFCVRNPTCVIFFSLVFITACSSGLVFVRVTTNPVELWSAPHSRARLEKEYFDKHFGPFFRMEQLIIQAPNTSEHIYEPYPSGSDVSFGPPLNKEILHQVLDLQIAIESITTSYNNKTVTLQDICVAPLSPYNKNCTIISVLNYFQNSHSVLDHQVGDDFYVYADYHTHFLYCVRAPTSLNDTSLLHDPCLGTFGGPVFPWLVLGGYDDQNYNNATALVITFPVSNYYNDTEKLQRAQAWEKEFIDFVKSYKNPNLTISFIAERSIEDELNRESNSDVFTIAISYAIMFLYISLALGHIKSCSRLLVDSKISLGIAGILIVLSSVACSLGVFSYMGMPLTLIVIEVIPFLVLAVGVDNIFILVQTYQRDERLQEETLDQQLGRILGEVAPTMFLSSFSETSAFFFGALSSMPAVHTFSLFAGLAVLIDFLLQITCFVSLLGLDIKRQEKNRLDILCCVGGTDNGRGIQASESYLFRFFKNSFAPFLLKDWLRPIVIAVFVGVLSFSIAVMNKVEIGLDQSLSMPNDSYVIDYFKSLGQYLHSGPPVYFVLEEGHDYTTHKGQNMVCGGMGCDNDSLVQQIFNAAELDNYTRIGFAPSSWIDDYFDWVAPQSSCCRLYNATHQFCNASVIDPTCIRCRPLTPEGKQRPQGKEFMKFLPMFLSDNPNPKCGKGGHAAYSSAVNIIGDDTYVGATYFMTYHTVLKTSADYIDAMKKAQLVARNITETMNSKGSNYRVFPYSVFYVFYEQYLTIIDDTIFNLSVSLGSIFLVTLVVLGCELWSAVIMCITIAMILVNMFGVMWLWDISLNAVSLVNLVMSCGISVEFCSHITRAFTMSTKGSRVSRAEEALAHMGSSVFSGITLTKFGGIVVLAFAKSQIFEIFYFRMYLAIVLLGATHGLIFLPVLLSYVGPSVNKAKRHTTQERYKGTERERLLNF
Sequence of wild-type human NPC1 (O15118 23-1278): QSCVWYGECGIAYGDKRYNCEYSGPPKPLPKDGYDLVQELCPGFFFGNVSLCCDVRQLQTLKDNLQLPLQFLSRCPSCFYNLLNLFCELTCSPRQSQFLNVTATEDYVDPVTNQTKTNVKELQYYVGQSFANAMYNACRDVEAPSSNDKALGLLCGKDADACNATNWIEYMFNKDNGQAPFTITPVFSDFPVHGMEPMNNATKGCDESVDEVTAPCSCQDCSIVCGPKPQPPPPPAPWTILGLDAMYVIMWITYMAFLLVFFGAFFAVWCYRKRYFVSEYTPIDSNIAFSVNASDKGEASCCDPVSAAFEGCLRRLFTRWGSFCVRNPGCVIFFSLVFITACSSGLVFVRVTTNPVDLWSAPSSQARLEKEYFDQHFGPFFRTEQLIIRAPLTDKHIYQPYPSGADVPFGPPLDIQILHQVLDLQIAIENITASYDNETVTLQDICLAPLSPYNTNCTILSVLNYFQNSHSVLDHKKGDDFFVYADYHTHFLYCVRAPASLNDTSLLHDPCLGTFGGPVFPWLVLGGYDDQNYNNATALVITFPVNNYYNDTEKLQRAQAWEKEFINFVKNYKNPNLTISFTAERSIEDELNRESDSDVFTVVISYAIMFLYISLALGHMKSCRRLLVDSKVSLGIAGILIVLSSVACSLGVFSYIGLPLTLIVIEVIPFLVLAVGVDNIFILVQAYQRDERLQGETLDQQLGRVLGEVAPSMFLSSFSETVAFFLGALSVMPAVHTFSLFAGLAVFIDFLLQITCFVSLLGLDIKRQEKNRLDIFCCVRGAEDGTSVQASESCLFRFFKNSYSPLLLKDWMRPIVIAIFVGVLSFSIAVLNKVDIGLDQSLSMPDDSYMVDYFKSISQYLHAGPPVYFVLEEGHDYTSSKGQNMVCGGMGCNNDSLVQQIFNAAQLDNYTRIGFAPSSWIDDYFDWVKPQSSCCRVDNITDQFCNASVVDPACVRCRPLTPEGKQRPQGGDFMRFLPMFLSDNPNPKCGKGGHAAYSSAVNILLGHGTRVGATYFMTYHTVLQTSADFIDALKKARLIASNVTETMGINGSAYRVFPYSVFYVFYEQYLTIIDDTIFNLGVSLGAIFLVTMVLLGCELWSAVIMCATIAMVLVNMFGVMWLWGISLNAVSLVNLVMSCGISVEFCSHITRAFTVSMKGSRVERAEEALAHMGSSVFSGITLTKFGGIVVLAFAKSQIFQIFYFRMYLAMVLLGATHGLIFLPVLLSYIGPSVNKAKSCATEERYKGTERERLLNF
Sequence of purified NPC1 (O15118 23-1278): as above
Sequence of NPC1L1 (Q9UHC9 22-1359): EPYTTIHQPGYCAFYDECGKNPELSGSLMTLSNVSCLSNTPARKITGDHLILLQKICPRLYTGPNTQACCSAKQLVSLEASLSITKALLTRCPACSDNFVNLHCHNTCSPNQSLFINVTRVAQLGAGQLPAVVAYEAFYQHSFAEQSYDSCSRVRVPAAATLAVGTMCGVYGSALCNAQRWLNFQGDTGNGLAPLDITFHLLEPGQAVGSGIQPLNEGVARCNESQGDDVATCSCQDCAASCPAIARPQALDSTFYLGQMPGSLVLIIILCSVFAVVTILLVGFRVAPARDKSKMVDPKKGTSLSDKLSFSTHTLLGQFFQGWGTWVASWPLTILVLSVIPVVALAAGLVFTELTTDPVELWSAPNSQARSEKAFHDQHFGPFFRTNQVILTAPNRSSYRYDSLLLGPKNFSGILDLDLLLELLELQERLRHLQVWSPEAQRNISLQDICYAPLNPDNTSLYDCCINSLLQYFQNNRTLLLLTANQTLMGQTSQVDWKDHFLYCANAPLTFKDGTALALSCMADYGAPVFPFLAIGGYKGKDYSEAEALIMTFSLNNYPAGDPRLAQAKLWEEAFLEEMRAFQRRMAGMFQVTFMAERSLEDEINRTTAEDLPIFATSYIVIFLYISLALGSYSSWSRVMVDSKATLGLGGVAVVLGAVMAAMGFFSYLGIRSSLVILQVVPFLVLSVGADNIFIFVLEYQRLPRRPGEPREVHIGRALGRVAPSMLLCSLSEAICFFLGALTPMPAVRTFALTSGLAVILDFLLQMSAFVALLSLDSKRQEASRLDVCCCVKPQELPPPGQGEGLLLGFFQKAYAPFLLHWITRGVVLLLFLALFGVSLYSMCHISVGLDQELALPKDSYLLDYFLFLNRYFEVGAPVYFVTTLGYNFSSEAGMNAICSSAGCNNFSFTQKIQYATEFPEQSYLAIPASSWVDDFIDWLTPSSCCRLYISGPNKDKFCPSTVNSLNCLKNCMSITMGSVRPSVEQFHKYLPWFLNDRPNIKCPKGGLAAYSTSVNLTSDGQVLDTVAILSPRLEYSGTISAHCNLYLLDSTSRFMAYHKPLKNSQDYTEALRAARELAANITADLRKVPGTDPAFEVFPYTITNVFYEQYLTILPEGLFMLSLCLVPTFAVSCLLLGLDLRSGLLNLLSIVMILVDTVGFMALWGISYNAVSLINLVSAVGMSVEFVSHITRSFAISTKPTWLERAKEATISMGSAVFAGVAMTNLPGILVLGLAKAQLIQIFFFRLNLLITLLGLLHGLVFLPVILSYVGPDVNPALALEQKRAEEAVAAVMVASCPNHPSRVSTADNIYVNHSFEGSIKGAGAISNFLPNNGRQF

## CCC(CC)CCOC1CCC2(C)C(=CCC3C2CCC2(C)C3CCC2N(C)C)C1 (stereo not drawn) [compound A]
[1]
  pKa: 10.2
[2]
  fold less active than U18666A in the cholesterol esterification assay: ~100 fold
[2]; [16]
  Ki: 4500 nM
[3]
  effect on the FCS-induced reduction of nuclear SREBP-2: no activity
[4]
  competition of U-X crosslinking to NPC1, immunoprecipitation: not inhibited
  competition of U-X crosslinking to the 190-kDa protein (NPC1), in-gel fluorescence: not

## CCN(CC)CCOC1CCC2(C)C(=CCC3C4CCC(=O)C4(C)CCC32)C1 (stereo not drawn) [U18666A, 3-beta-[2-(diethylamino)ethoxy]androst-5-en-17-one, reference compound]
[5]
  fold more potent than imipramine: more than 100 fold
[6]
  rise of the threshold for U18666A inhibition by overexpression of NPC1: more than 100 fold
[6]; [17]
  Ki: 2700 nM
[1]
  pKa: 9.41
[2]
  concentration at which transport of LDL-derived cholesterol from lysosomes to ER is inhibited (as low as): 0.03 µM
  effect on lysosomal exit of cholesterol (incorporation of [14C]oleate into cholesteryl [14C]oleate): inhibited the lysosomal exit of cholesterol
[2]; [16]
  Ki: 30 nM
[2]; [17]
  Ki: 20 nM
[7]
  effect on binding of [3H]25-hydroxycholesterol to the NTD of recombinant NPC1: does not block binding
[8]
  competition of U-X crosslinking to transfected wild-type NPC1: competed
[3]
  effect on the FCS-induced reduction of nuclear SREBP-2: prevented this reduction
[9]
  concentrations of U18666A required to inhibit Ebola virus infection: 3 to 12 µM
[10]
  effect on cholesterol esterification stimulated by 25-hydroxycholesterol: did not block
[4]
  competition of U-X crosslinking to NPC1, immunoprecipitation: blocked
  competition of U-X crosslinking to the 190-kDa protein (NPC1), in-gel fluorescence: disappeared
[11]
  effect on cholesteryl [14C]oleate formation when cholesterol is added to ER membranes in vitro: does not inhibit
[12]
  fold higher concentration required for inhibition of Ebola than for inhibition of cholesterol export: 100 fold
[13]
  effect on degradation of 125I-LDL (125I-monoiodotyrosine released into medium): did not inhibit degradation

## C#CCOc1ccc(C(=O)c2ccc(C(=O)OCCN(CC)CCOC3CCC4(C)C(=CCC5C6CCC(=O)C6(C)CCC54)C3)cc2)cc1 (stereo not drawn) [U-X]
[2]
  effect on lysosomal exit of cholesterol (incorporation of [14C]oleate into cholesteryl [14C]oleate): inhibited the lysosomal exit of cholesterol
[2]; [16]
  Ki: 60 nM
[14]
  crosslinking to NPC1L1: did not crosslink
[8]
  fluorescent NPC1 after UV crosslinking of U-X: detected
[3]
  effect on the FCS-induced reduction of nuclear SREBP-2: blocked
[15]
  crosslinking to purified NPC1: unable to crosslink
[4]
  crosslinking to NPC1: crosslinks
[13]
  effect on degradation of 125I-LDL (125I-monoiodotyrosine released into medium): did not inhibit degradation

## CCCN(CCOC1CCC2(C)C(=CCC3C4CCC(=O)C4(C)CCC32)C1)Cc1cn(-c2cccnc2)nn1 (stereo not drawn) [compound B]
[2]; [16]
  Ki: 10 nM
[4]
  competition of U-X crosslinking to NPC1, immunoprecipitation: blocked

## CCC(CC)CCOC1CCC2(C)C(=CCC3C4CCC(=O)C4(C)CCC32)C1 (stereo not drawn) [compound D]
[2]; [16]
  Ki: 4700 nM
[4]
  competition of U-X crosslinking to NPC1, immunoprecipitation: not inhibited

## CCN(CC)CCCC(C)Nc1ccnc2cc(Cl)ccc12 (stereo not drawn) [chloroquine, reference compound]
[2]
  effect on release of LDL-derived cholesterol (cholesterol esterification): blocked
[13]
  effect on degradation of 125I-LDL (125I-monoiodotyrosine released into medium): blocked the degradation

## CCCN(CCOC1CCC2(C)C(=CCC3C4CCC(=O)C4(C)CCC32)C1)Cc1cn(CCCCCCOC(=O)CCCCC2SCC3NC(=O)NC32)nn1 (stereo not drawn) [compound C]
[2]; [16]
  Ki: 20 nM
[4]
  competition of U-X crosslinking to NPC1, immunoprecipitation: blocked

## CCN(CC)CCOC1CCCCC1 [compound E]
[2]; [16]
  Ki: > 10000 nM
[4]
  competition of U-X crosslinking to NPC1, immunoprecipitation: not inhibited

Source: article PMC4718804 (eLife, 2015)
